In this experiment the test system is 5-hydroxytryptamine induced bronchoconstriction. The experiment in a line: inhibition of 5-hydroxytryptamine induced bronchoconstriction (Konzett-Rossler preparation). The experiment is classed as in vivo. Conditions: Cavia porcellus, iv; intravenously; anaesthetised, artificially respired guinea pig; read-out: IC50 for inhibition of bronchoconstriction. From the text:
The compounds were examined for their ability to inhibit 5-hydroxytryptamine induced bronchoconstriction in the anaesthetised, artifically respired guinea pig (Konzett-Rossler preparation - ref: H. Konzett and R. Rossler, 1940, Arch. exp. Path. Pharmak., 195, 71).

Take `CCCCC(C)(O)CCCCN1C(=O)CC(=O)C1CCCCCCC(=O)OC` (stereo not shown) [Compound 30, 2-(6'-Methoxycarbonyl-n-hexyl)-1-(5"-hydroxy-5"-methyl-n-nonyl)-pyrrolidin-3,5-dione]: the ED50 amounted to 0.012 mg/kg.

These data come from patent US4156730A, “Pharmaceutically active compounds, preparation thereof, intermediates useful in such preparation and compositions containing the compounds” (Beecham Group Limited, priority 1976, dated 1979).
